Measurements from patent US20160002217A1, “FUNGICIDAL 3--OXADIAZOLONE DERIVATIVES” (BAYER CROPSCIENCE AG, priority 2013, published 2016).
Where two headings read alike, the source gives them in different places. Marks after values point to notes of the source that are not given here.

Tests used:
[1] = Measurement of log P values by HPLC on reversed phase columns (EEC directive 79/831 Annex V.A8); details: for chromatographic logP: pH 2.7; for LogP: Table 1, compounds of formula (I), method [a]: LC-MS at pH 2.7, 0.1% formic acid in water / acetonitrile gradient
Septoria tritici = test: In vivo preventive test on Septoria tritici (leaf spot on wheat); details: wheat plants, preventive spray, 500 ppm of active ingredient, evaluated 24 days after inoculation
Description: (§1) The tested active ingredients are prepared by homogenization in a mixture of acetone/Dimethyl sulfoxide/Tween®, and then diluted with water to obtain the desired active material concentration.
(§2) The young plants of wheat are treated by spraying the active ingredient prepared as described above. Control plants are treated only with an aqueous solution of acetone/Dimethyl sulfoxide/Tween®.
After 24 hours, the plants are contaminated by spraying the leaves with an aqueous suspension of Septoria tritici spores. The contaminated wheat plants are incubated for 72 hours at 18° C. and at 100% relative humidity and then for 21 days at 20° C. and at 90% relative humidity.
The test is evaluated 24 days after the inoculation. 0% means an efficacy which corresponds to that of the control plants while an efficacy of 100% means that no disease is observed.

Alternaria brassicae = test: In vivo preventive test on Alternaria brassicae (leaf spot on radish); details: radish plants, preventive spray, 500 ppm of active ingredient, evaluated 6 days after inoculation
Description: as §1
The young plants of radish are treated by spraying the active ingredient prepared as described above. Control plants are treated only with an aqueous solution of acetone/Dimethyl sulfoxide/Tween®.
After 24 hours, the plants are contaminated by spraying the leaves with an aqueous suspension of Alternaria brassicae spores. The contaminated radish plants are incubated for 6 days at 20° C. and at 100% relative humidity.
The test is evaluated 6 days after the inoculation. 0% means an efficacy which corresponds to that of the control plants while an efficacy of 100% means that no disease is observed.

[2] = pH 2.7
Phytophthora infestans = assay type: in vivo; details: tomato plants, preventive spray, 500 ppm of active ingredient, evaluated 5 days after inoculation
Pyrenophora teres = test: In vivo preventive test on Pyrenophora teres (net blotch on barley); details: barley plants, preventive spray, 500 ppm of active ingredient, evaluated 14 days after inoculation
Description: as §1
The young plants of barley are treated by spraying the active ingredient prepared as described above. Control plants are treated only with an aqueous solution of acetone/Dimethyl sulfoxide/Tween®.
After 24 hours, the plants are contaminated by spraying the leaves with an aqueous suspension of Pyrenophora teres spores. The contaminated barley plants are incubated for 48 hours at 20° C. and at 100% relative humidity and then for 12 days at 20° C. and at 70-80% relative humidity.
The test is evaluated 14 days after the inoculation. 0% means an efficacy which corresponds to that of the control plants while an efficacy of 100% means that no disease is observed.

Plasmopara viticola = test: Plasmopara test (grapevines) / preventive; assay type: in vivo; details: grapevine plants, preventive spray, 10 ppm of active ingredient, evaluated 6 days after inoculation
Description: Solvent: 24.5 parts by weight of acetone • 24.5 parts by weight of dimethylacetamide
Emulsifier: 1 part by weight of alkylaryl polyglycol ether
To produce a suitable preparation of active compound, 1 part by weight of active compound is mixed with the stated amounts of solvent and emulsifier, and the concentrate is diluted with water to the desired concentration.
To test for preventive activity, young plants are sprayed with the preparation of active compound at the stated rate of application. After the spray coating has dried on, the plants are inoculated with an aqueous spore suspension of Plasmopara viticola and then remain for 1 day in an incubation cabinet at approximately 20° C. and a relative atmospheric humidity of 100%. The plant is subsequently placed for 4 days in a greenhouse at approximately 21° C. and a relative atmospheric humidity of approximately 90%. The plants are then misted and placed for 1 day in an incubation cabinet.
The test is evaluated 6 days after the inoculation. 0% means an efficacy which corresponds to that of the untreated control, while an efficacy of 100% means that no disease is observed.

Pyricularia oryzae = assay type: in vivo; details: rice plants, preventive spray, 500 ppm of active ingredient, evaluated 6 days after inoculation
Puccinia recondita = test: In vivo preventive test on Puccinia recondita (brown rust on wheat); details: wheat plants, preventive spray, 500 ppm of active ingredient, evaluated 11 days after inoculation
Description: as §1, §2
After 24 hours, the plants are contaminated by spraying the leaves with an aqueous suspension of Puccinia recondita spores. The contaminated wheat plants are incubated for 24 hours at 20° C. and at 100% relative humidity and then for 10 days at 20° C. and at 70-80% relative humidity.
(§3) The test is evaluated 11 days after the inoculation. 0% means an efficacy which corresponds to that of the control plants while an efficacy of 100% means that no disease is observed.

Uromyces appendiculatus = test: In vivo preventive test on Uromyces appendiculatus (bean rust); details: bean plants, preventive spray, 500 ppm of active ingredient, evaluated 11 days after inoculation
Description: as §1
The young plants of bean are treated by spraying the active ingredient prepared as described above. Control plants are treated only with an aqueous solution of acetone/Dimethyl sulfoxide/Tween®.
After 24 hours, the plants are contaminated by spraying the leaves with an aqueous suspension of Uromyces appendiculatus spores. The contaminated bean plants are incubated for 24 hours at 20° C. and at 100% relative humidity and then for 10 days at 20° C. and at 70-80% relative humidity.
as §3

Structure (SMILES)	chromatographic logP [1]	LogP [2]	% efficacy (Phytophthora infestans) [%]	other results
Cn1oc(=O)nc1/C(=N\OCc1cccc(N)n1)c1ccccn1 [Example 9, 3-[(Z)-{[(6-aminopyridin-2-yl)methoxy]imino}(pyridine-2-yl)methyl]-2-methyl-1,2,4-oxadiazol-5(2H)-one]	0.41			
Cn1c(C(=NOCc2cccc(NC(=O)OC(C)(C)C)n2)c2ccccn2)noc1=O [Example 13]		3.17^[a]	98	% efficacy (Septoria tritici): 75%; % efficacy (Alternaria brassicae): 91%; % efficacy (Pyrenophora teres): 77%
Cn1c(C(=NOCc2csc(NC(=O)OC(C)(C)C)n2)c2ccsc2)noc1=O [Example 16]		3.39^[a]	100	% efficacy (Plasmopara viticola): 99%
C#CCCOC(=O)Nc1cccc(CO/N=C(/c2ccccn2)c2nc(=O)on2C)n1 [Example 17, But-3-yn-1-yl {6-[({[(Z)-(2-methyl-5-oxo-2,5-dihydro-1,2,4-oxadiazol-3-yl)(pyridine-2-yl)methylene]amino}oxy)methyl]pyridin-2-yl}carbamate]	2.1			
C#CCCOC(=O)Nc1cccc(CON=C(c2ccccn2)c2nc(=O)on2CC)n1 [Example 19]				LogP [1]: 2.35^[a]
Cn1oc(=O)nc1/C(=N\OCc1cccc(NC(=O)OC(C)(C)C)n1)c1ccccn1 [Example 22, tert-butyl {6-[({[(Z)-(2-methyl-5-oxo-2,5-dihydro-1,2,4-oxadiazol-3-yl)(pyridine-2-yl)methylene]amino}oxy)methyl]pyridin-2-yl}carbamate]	2.68		99	% efficacy (Pyricularia oryzae): 75%; % efficacy (Puccinia recondita): 88%; % efficacy (Uromyces appendiculatus): 100%
Cn1c(C(=NOCc2csc(N)n2)c2ccsc2)noc1=O [Example 23]			98	LogP [1]: 1.35^[a]
CC(C)(C)OC(=O)Nc1cccc(CON=C(c2cccnc2)c2noc(=O)[nH]2)n1 [Example 32, tert-butyl {6-[({[(5-oxo-4,5-dihydro-1,2,4-oxadiazol-3-yl)(pyridin-3-yl)methylene]amino}oxy)methyl]pyridin-2-yl}carbamate]	2.59			
Cn1c(C(=NOCc2cccc(NC(=O)OC(C)(C)C)n2)c2cccnc2)noc1=O [Example 33, tert-butyl {6-[({[(4-methyl-5-oxo-4,5-dihydro-1,2,4-oxadiazol-3-yl)(pyridin-3-yl)methylene]amino}oxy)methyl]pyridin-2-yl}carbamate]	2.75		78	
CCCCCOC(=O)Nc1cccc(CON=C(c2ccncc2)c2noc(=O)n2C)n1 [Example 44]			98	LogP [1]: 3.29^[a]
C#CCCOC(=O)Nc1cccc(CON=C(c2ccncc2)c2noc(=O)n2C)n1 [Example 45]		2.21^[a]	100	% efficacy (Plasmopara viticola): 91%
C#CCCOC(=O)Nc1cccc(CON=C(c2cccnc2)c2nc(=O)on2C)n1 [Example 56]		1.88^[a]	89	
CCCCOC(=O)Nc1cccc(CON=C(c2cccnc2)c2nc(=O)on2C)n1 [Example 57]		2.47^[a]	95	
CCCCC(=O)Nc1cccc(CON=C(c2cccnc2)c2noc(=O)n2C)n1 [Example 59]		2.51^[a]	78	
CCCCCC(=O)Nc1cccc(CON=C(c2ncccn2)c2noc(=O)n2C)n1 [Example 60]		2.61^[a]	90	
CCCCCC(=O)Nc1cccc(CON=C(c2cccnc2)c2nc(=O)on2C)n1 [Example 63]		2.39^[a]	75	
Cn1c(C(=NOCc2csc(NC(=O)COc3ccccc3)n2)c2ccsc2)noc1=O [Example 67]		3.22^[a]	98	
Cn1c(C(=NOCc2csc(NC(=O)C3CCc4ccccc4O3)n2)c2ccsc2)noc1=O (stereo not drawn) [Example 69]		3.62^[a]	75	% efficacy (Plasmopara viticola): 92%
CCCC(C)C(=O)Nc1nc(CON=C(c2ccsc2)c2noc(=O)n2C)cs1 (stereo not drawn) [Example 71]		3.39^[a]	100	
CCCCCC(=O)Nc1nc(CON=C(c2ccsc2)c2noc(=O)n2C)cs1 [Example 73]		3.43^[a]	100	
CCCCCOC(=O)Nc1nc(CON=C(c2cccs2)c2noc(=O)n2C)cs1 [Example 74]		3.79^[a]	85	
CC(Oc1ccccc1)C(=O)Nc1nc(CON=C(c2cccs2)c2noc(=O)n2C)cs1 (stereo not drawn) [Example 80]		3.42^[a]	100	% efficacy (Plasmopara viticola): 100%
CCCCOC(=O)Nc1cccc(CON=C(c2ccncc2)c2noc(=O)n2C)n1 [Example 82]		2.80^[a]	100	
CCCCC(=O)Nc1cccc(CON=C(c2ccncc2)c2noc(=O)n2C)n1 [Example 83]		2.34^[a]	100	
CCCCCC(=O)Nc1cccc(CON=C(c2ccncc2)c2noc(=O)n2C)n1 [Example 84]		2.71^[a]	100	
CC(C)(C)OC(=O)Nc1cccc(CO/N=C(\C#N)c2ccccn2)n1 [Example IV-02, tert-butyl {6-[({[(Z)-cyano(pyridin-2-yl)methylene]amino}oxy)methyl]pyridin-2-yl}carbamate]	3.5			
CC(C)(C)OC(=O)Nc1cccc(CON=C(C#N)c2cccnc2)n1 [Example IV-07, tert-butyl {6-[({[cyano(pyridin-3-yl)methylene]amino}oxy)methyl]pyridin-2-yl}carbamate]	3.19			
CC(C)(C)OC(=O)Nc1cccc(CON=C(C(N)=NO)c2cccnc2)n1 [Example V-03, tert-butyl {6-[({[2-amino-2-(hydroxyimino)-1-(pyridin-3-yl)ethylidene]amino}oxy)methyl]pyridin-2-yl}carbamate]	1.81			
CN(O)C(=N)/C(=N\OCc1cccc(NC(=O)OC(C)(C)C)n1)c1ccccn1 [Example VI-01, tert-butyl (6-{[({(1Z)-2-[hydroxy(methyl)amino]-2-imino-1-(pyridin-2-yl)ethylidene}amino)oxy]methyl}pyridin-2-yl)carbamate]	1.54			
